We go through 112 molecules from a melting point compilation (Tetko et al.).

SMILES strings stand for the structures.

In general, melting point refers to the temperature, or range, at which the solid turns liquid. In turn, `NNC(=O)c1ccc(N)cc1O` came in with a melting point of 195 °C.
In the case of `CCOc1ccc2nc(S(N)(=O)=O)sc2c1` it was 188 °C; in that of `O=[N+]([O-])c1ccc2ncsc2c1`, 175 °C; in that of `O=S1(=O)CCN(Cc2cccs2)CC1`, 126 to 128 °C.
In the case of `O=C(CS(=O)(=O)c1ccccc1)c1ccccc1` it was 92 to 95 °C; in that of `FC(F)(F)c1ccc(-c2nc(CCl)no2)cc1`, 48 to 50 °C; in that of `O=Cc1cccc2cccc(C(=O)O)c12`, 160 to 167 °C.
`O=C1c2ccccc2C(=O)c2c1ccc([N+](=O)[O-])c2[N+](=O)[O-]` gave a melting point of 341 °C.
In the case of `CN1C(=O)Cc2cc(N)ccc21` it was 109 to 112 °C.
With `Nc1cccc(Oc2ccc(S(=O)(=O)c3ccc(Oc4cccc(N)c4)cc3)cc2)c1`, the melting point lay within 132 to 135 °C.
`CC(=O)n1cc(C)c2ccccc21` returned a melting point of 65 °C.
Molecule `CC(=O)OCc1ccc(C=O)o1` registered a melting point of 52 to 56 °C.
The same measure for `COC(=O)C(c1ccccc1Cl)N1CCc2sccc2C1` (configuration not stated): 158 °C; for `Cc1noc(N)c1[N+](=O)[O-]`: 154 to 156 °C.
On to `CCC(C)(C)N`, for which the melting point was -105 °C.
In the case of `Cc1ncoc1C(=O)O` it was 239 to 240 °C; in that of `CCOC(=O)C1=C(C)NC(=O)NC1c1cccc(OC)c1OC` (configuration not stated), 195 °C.
In the case of `Cn1ccc(-c2ccc(N)cc2)n1` it was 125 to 132 °C; in that of `CC(C=CC=C(C)C=CC1=C(C)CC(O)CC1(C)C)=CC=CC=C(C)C=CC=C(C)C=CC1=C(C)CC(O)CC1(C)C` (configuration not stated), 216 °C; in that of `COC(=O)c1ccc(Cl)cc1[N+](=O)[O-]`, 44 °C.
The same measure for `Cc1cc(Cl)c(N=C=O)cc1N=C=O`: 62 °C; for `CSc1nc(NS(=O)(=O)c2ccc(C)cc2)c(C#N)c(-c2ccccc2)c1Br`: 212 to 216 °C.
`O=[N+]([O-])c1ccc(-c2ccno2)cc1` gave a melting point of 172 to 174 °C.
As to `Cc1cc(Cl)ccc1N`, the melting point worked out at 30.3 °C.
The same measure for `FC(F)(F)c1cccc(Br)c1`: 1 °C.
Regarding `O=C(O)c1c(Br)cc(Br)c(O)c1Br`, the melting point is 147 °C.
The same measure for `Cc1cc(C)n(CN(Cc2ccccc2)Cn2nc(C)cc2C)n1`: 71 °C; for `O=C1C=C(NCc2ccc(Cl)c(Cl)c2)C(=O)c2ccccc21`: 217 °C.
In the case of `Cc1nc2scc(-c3ccccc3)c2c(=O)n1NC(=O)c1ccc(Cl)cc1` it was 235 to 236 °C; in that of `Nc1nnc(-c2ccccc2)s1`, greater than 270 °C; in that of `Fc1cc(I)ccc1Br`, 36 to 41 °C.
In the case of `CCOCCO` it was -70 °C.
Molecule `O=C(NC(=O)c1c(F)cccc1F)Nc1cc(Cl)c(OC(F)(F)C(F)C(F)(F)F)cc1Cl` (configuration not stated) came in with a melting point of 169 °C.
`O=Cc1c(Cl)[nH]n(-c2ccccc2)c1=O`: the melting point turned out to be 167 °C.
The same measure for `CC(=O)NC1CCCCC(NC(C)=O)CCCC1` (configuration not stated): 296 to 297 °C; for `O=C1C=C(Cl)C(=O)C(Cl)=C1`: 123 °C; for `Nc1c(F)c(F)c(-c2c(F)c(F)c(F)c(F)c2F)c(F)c1F`: 146 °C.
The same measure for `N#Cc1ccc(O)c(Br)c1`: 158 °C; for `CC(C)(C)OC(=O)NCc1nnc(S)n1C1CC1`: 193 to 194 °C; for `Cc1ccccc1NC(=O)C(C(F)(F)F)C(F)(F)F`: 193 to 195 °C.
`Cc1cc(C(=O)O)c(C(F)(F)F)o1`: the melting point lay within 124 to 126 °C.
Take `CC(c1ccccc1)C(C(=O)O)c1ccccc1` (configuration not stated): the melting point was found to be 129 °C.
Regarding `N#CCCNc1ccccc1`, the melting point came to 52.5 °C.
In the case of `O=C1N(c2ccccc2)C(=O)[C@@]2(Cl)C(c3ccccc3)(c3ccccc3)C[C@@]12Cl` it was 160 °C; in that of `Clc1cc(Cl)c(-c2c(Cl)cccc2Cl)c(Cl)c1`, 85 °C.
The same measure for `CCc1nc(C)c(C=O)[nH]1`: 104 to 105 °C.
Take `Cc1cc(/C=C/c2ccccc2N)c(N)cc1N`: the melting point came to 151 °C.
Take `C=CCNC(=S)NN`: the melting point lay within 93 to 96 °C.
Consider `O=Cc1ccc2[nH]ccc2c1`, for which the melting point was found to be 98 °C.
The same measure for `COc1ccccc1OP(=O)(Oc1ccccc1OC)Oc1ccccc1OC`: 91 °C; for `BrCc1cccc(-c2ccsc2)c1`: 70 °C; for `Clc1nc(Cl)nc(Oc2cc(Oc3nc(Cl)nc(Cl)n3)cc(Oc3nc(Cl)nc(Cl)n3)c2)n1`: 240 °C.
The same measure for `ClC1(c2ccccc2)Cc2ccccc21` (configuration not stated): 60 °C; for `O=C1C(Cl)=C(Cl)C(=O)c2ccccc21`: 195 °C; for `O=C(Nc1cccnc1Cl)c1ccc(Cl)cc1Cl`: 148 to 150 °C.
On to `COc1ccc(C=O)cc1O`, for which the melting point amounted to 114 °C.
The same measure for `N#C/C(=N\Nc1ccc(Cl)cc1)c1nc2ccccc2c(=O)[nH]1`: 253 °C; for `NNc1ccc(Cl)cc1[N+](=O)[O-]`: 134 °C; for `CCCC(=O)c1ccccc1O`: 10 °C.
The same measure for `C(=C/c1ccco1)/c1ccc2cc3ccc(/C=C/c4ccco4)nc3cc2n1`: 272 °C; for `Nc1cc2ccccc2cc1O`: 235 °C.
The same measure for `N#CCn1cnc(Cl)c1Cl`: 95 to 99 °C; for `CCOC(=O)C(=NNc1ccccc1[N+](=O)[O-])C(=O)OCC`: 196 °C; for `CN(C)c1ccc(C2C3=C(CC(C)(C)CC3=O)Nc3ccc4ccccc4c32)cc1` (configuration not stated): 327 °C.
Turning to `CCCCOc1ccc(N)c([N+](=O)[O-])c1`, the melting point fell in the range of 64 to 66 °C.
`FC1CCCCC1` had a melting point of 13 °C.
In the case of `NNC(=O)c1ccccc1-c1ccccc1`, the melting point fell in the range of 140 to 143 °C.
The molecule `CCS(=O)(=O)C(C)(C)S(=O)(=O)CC` registered a melting point of 126 °C.
The same measure for `CC1=Nc2c(ccc3ccccc23)C1(C)C`: 71 °C; for `c1cc2ccc1CCc1ccc(cc1)CC2`: 285 to 288 °C; for `CC(CBr)c1ccccc1` (configuration not stated): -59.3 °C.
`CC(C)(C)[Si](C)(C)Cl` showed a melting point of 88 °C.
`Clc1nc(-c2ccccc2)nc2ccccc12` showed a melting point of 123 to 128 °C.
In turn, `Nc1ncc([N+](=O)[O-])cn1` came in with a melting point of 237 °C.
The same measure for `Oc1cccc(Cl)c1O`: 48.5 °C.
`ON=Cc1cccc2c(Br)cccc12` showed a melting point of 134 °C.
With `CCC(C)(C#N)N=NC(C)(C#N)CC` (configuration not stated), the melting point was 50 °C.
`CC(=O)Nc1ccc(C=CC(=O)c2ccccc2)cc1` showed a melting point of 179 °C.
`CC1(C)CC2C(C(=O)O1)C2(C)C` (configuration not stated) had a melting point of 80 to 83 °C.
In the case of `CC(C)(C)OC(=O)N[C@@H](CC(=O)O)c1ccc(Br)cc1` it was 144 °C.
The same measure for `S=C(NCC(c1ccccc1)c1ccccc1)Nc1ccccc1`: 171 °C; for `CN(C)c1ccc(N=Nc2ccc([N+](=O)[O-])cc2)cc1`: 236 °C; for `COc1ccc(/C=N/c2nc(C(F)(F)F)n[nH]2)cc1`: 171 °C.
On to `O=C(O)C1(c2c(F)cccc2Cl)CCCCC1`, for which the melting point lay in the range of 128 to 134 °C.
`Cc1ccnc2c1ccc1c(C)ccnc12`: the melting point turned out to be 194 °C.
Molecule `NNC(=O)c1cccc(Cl)c1` had a melting point of 158 °C.
In the case of `Cc1cccc(C)c1OCC(C)N` (configuration not stated) it was 204 °C; in that of `O=[N+]([O-])c1c(Cl)cccc1Cl`, 72.5 °C.
The same measure for `COc1ccc2c(c1)C(=O)C(=O)N2`: 200 °C.
In the case of `CCC=Cc1ccccc1` it was -43.1 °C.
Consider `Nc1ccc(-c2ccc(Cl)cc2)cc1`, for which the melting point was found to be 134 °C.
The same measure for `O=C(Cl)c1cccc(F)c1`: -30 °C; for `O=C(Nc1ccccc1)c1ccccc1I`: 137 °C; for `Cc1cc(C)n(N=Cc2ccccc2Cl)c(=O)c1C#N`: 233 to 235 °C.
The same measure for `Cc1c(C)c(O)c(C)c(C)c1O`: 233 °C; for `C=CCOOC(C)(C)c1ccccc1`: 60 °C; for `CC(C)(C)OC(=O)Nc1cccs1`: 151 to 152 °C.
In the case of `CCOC(=O)c1sc(SC)c2c1-c1ccccc1N(C)S2(=O)=O` it was 190 to 193 °C.
In turn, `O=Cc1ccc(-c2ccc(OC(F)(F)F)cc2)o1` registered a melting point of 87 to 88 °C.
Turning to `COc1cccc2c(=O)c3c(n(C)c12)OC(C(C)C)C3` (configuration not stated), the melting point came out at 119 °C.
The molecule `COC(=O)c1ccc(OCc2ccccc2)cc1` had a melting point of 98 °C.
Molecule `CC(=O)c1ccc(C#N)c(S)n1` came in with a melting point of 210 °C.
The same measure for `O=C(Cl)N1c2ccccc2Sc2ccccc21`: 168 to 172 °C.
In turn, `CC1(C)C(N)=[N+]([O-])C(c2ccccc2)N1O` (configuration not stated) gave a melting point of 208 to 210 °C.
The molecule `CCCC(=O)c1ccc(F)cc1` registered a melting point of 37 °C.
Consider `CC12CCC3C(CC=C4CC(O)CCC43C)C1CCC2=O` (single isomer, unassigned; (+)), for which the melting point lay in the range of 146 to 151 °C.
The molecule `Clc1ccc2nc(N3CCCNCC3)sc2c1` returned a melting point of 103 to 105 °C.
Consider `CCCC(=O)c1cc2ccccc2oc1=O`, for which the melting point lay within 93 to 94 °C.
On to `CCCN(CCC)c1c([N+](=O)[O-])cc(C(F)(F)F)cc1[N+](=O)[O-]`, for which the melting point was 49 °C.
In the case of `CCCC1Nn2c(nnc2-c2ccc(OCC)cc2)S1` (configuration not stated) it was 90 °C; in that of `CCSC(=O)N(CC)C1CCCCC1`, 11.5 °C.
In turn, `CCCCOC(=O)c1ccccc1C(=O)O` returned a melting point of 73.5 °C.
